{
  "source": "paper PMC9693455",
  "about": "“Synthesis of Tetrasubstituted Phosphorus Analogs of Aspartic Acid as Antiproliferative Agents” (Molecules, 2022)",
  "key": {"[1]": {"system": "A549 (carcinomic human alveolar basal epithelial) cells", "test": "In vitro cytotoxicity (antiproliferative activity), CCK-8 assay, A549", "type": "cell-based", "conditions": "Homo sapiens, A549, 48 h, 48 h exposure, CCK-8", "protocol": "(§1) In vitro cytotoxicity of the phosphorated aspartic acid derivatives was evaluated by testing their antiproliferative activities against several human cancer cell lines. Cell counting kit (CCK-8) assay was used for the evaluation of growth inhibition. […] In addition, trisubstituted aminophosphonate 9a (Imine precursor, R^1 = H, R^2 = P(O)(OMe)2) and tetrasubstituted aminophosphonate 18 (R^1 = Me, R^2 = P(O)(OMe)2) are used as templates in order to evaluate the effect of the substituents (Table 1).\n(§2) Human epithelial lung carcinoma cells (A549) (ATCC® CCL-185™, ATCC, Manassas, VA, USA) were grown in Kaighn’s Modification of Ham’s F-12 Medium (ATCC® 30-2004™, ATCC, Manassas, VA, USA) and lung fibroblast cells (MRC5) (ATCC® CCL-171™, ATCC, Manassas, VA, USA) were grown in Eagle’s Minimum Essential Medium (EMEM, ATCC® 30-2003™, ATCC, Manassas, VA, USA). Epithelial ovary adenocarcinoma cells (SKOV3) (ATCC® HTB-77™, ATCC, Manassas, VA, USA) were grown in McCoy’s 5A medium (ATCC® 30-2007™, ATCC, Manassas, VA, USA). All of them were supplemented with 10% of fetal bovine serum (FBS) (Sigma-Aldrich, Madrid, Spain) and with 1% of NORMOCIN solution (Thermo Fisher, Waltham, MA, USA). Cells were incubated at 37 °C and 5% CO2 atmosphere, and were split every 3–4 days to maintain monolayer coverage. For the cytotoxicity experiments, the A549 and SKOV3 cells were seeded in 96-well plates at a density of 2.5–3 × 10^3 cells per well and incubated overnight to achieve 70% of confluence at the time of exposition to the cytotoxic compound.\n(§3) Cells were exposed to different concentrations of the cytotoxic compounds and were incubated for 48 h. Then, 10 µL of cell counting kit-8 was added into each well for an additional two hours’ incubation at 37 °C. The absorbance of each well was determined by an Automatic Elisa Reader System (Thermo Scientific Multiskan FC Automatic Elisa Reader System, Thermo Scientific, Shanghai, China) at 450 nm wavelength."}, "[2]": {"system": "MRC5 lung fibroblast cells", "test": "Selective toxicity, CCK-8 assay, non-malignant MRC5 lung fibroblasts", "type": "cell-based", "conditions": "Homo sapiens; non-malignant MRC5 lung fibroblasts, 48 h exposure, CCK-8", "protocol": "as §1, §2, §3"}, "[3]": {"system": "SKOV3 (human ovarian carcinoma) cells", "test": "In vitro cytotoxicity (antiproliferative activity), CCK-8 assay, SKOV3", "type": "cell-based", "conditions": "Homo sapiens, SK-OV-3, 48 h exposure, CCK-8", "protocol": "as §1, §2, §3"}},
  "data": [
    {"compound": "CCOC(=O)CC(NS(=O)(=O)c1ccc(C)cc1)(c1ccc([N+](=O)[O-])cc1)P(=O)(OC)OC", "note": "(stereo not shown) [7q, Ethyl 3-(dimethoxyphosphoryl)-3-((4-methylphenyl)sulfonamido)-3-(4-nitrophenyl)propanoate]", "values": [
      {"measurement": "IC50", "setting": "[1]", "result": "0.67 ± 0.06", "unit": "µM"},
      {"measurement": "IC50", "setting": "[2]", "result": "> 50", "unit": "µM"},
      {"measurement": "melting point", "result": "129 to 130", "unit": "°C"},
      {"measurement": "IC50", "setting": "[3]", "result": "> 50", "unit": "µM"}
    ]},
    {"compound": "CCOC(=O)CC(NS(=O)(=O)c1ccc(C)cc1)(c1ccc(Cl)s1)P(=O)(OC)OC", "note": "(stereo not shown) [7r, Ethyl 3-(5-chlorothiophen-2-yl)-3-(dimethoxyphosphoryl)-3-((4-methylphenyl)sulfonamido)propanoate]", "values": [
      {"measurement": "IC50", "setting": "[1]", "result": "1.04 ± 0.28", "unit": "µM"},
      {"measurement": "IC50", "setting": "[2]", "result": "> 50", "unit": "µM"},
      {"measurement": "melting point", "result": "93 to 94", "unit": "°C"},
      {"measurement": "IC50", "setting": "[3]", "result": "11.8 ± 0.6", "unit": "µM"}
    ]},
    {"compound": "CCOC(=O)CC(NS(=O)(=O)c1ccc(C)cc1)(c1ccc(-c2ccccc2)cc1)P(=O)(OC)OC", "note": "(stereo not shown) [7s, Ethyl 3-([1,1’-biphenyl]-4-yl)-3-(dimethoxyphosphoryl)-3-((4-methylphenyl)sulfonamido)propanoate]", "values": [
      {"measurement": "IC50", "setting": "[1]", "result": "1.48 ± 0.4", "unit": "µM"},
      {"measurement": "IC50", "setting": "[2]", "result": "> 50", "unit": "µM"},
      {"measurement": "melting point", "result": "112 to 113", "unit": "°C"},
      {"measurement": "IC50", "setting": "[3]", "result": "17 ± 1.22", "unit": "µM"}
    ]},
    {"compound": "COP(=O)(OC)C(CC(=O)OCc1ccccc1)(NS(=O)(=O)c1ccc(C)cc1)c1ccccc1", "note": "(stereo not shown) [13b, Benzyl 3-(dimethoxyphosphoryl)-3-((4-methylphenyl)sulfonamido)-3-phenylpropanoate]", "values": [
      {"measurement": "IC50", "setting": "[1]", "result": "5.2 ± 0.16", "unit": "µM"},
      {"measurement": "IC50", "setting": "[2]", "result": "> 50", "unit": "µM"},
      {"measurement": "melting point", "result": "84 to 85", "unit": "°C"},
      {"measurement": "IC50", "setting": "[3]", "result": "> 50", "unit": "µM"}
    ]}
  ]
}
